Results on 13 compounds are retold here after US20120015414A1, “Production of organic compounds” (priority 2010, published 2012).

For one series, the target named is T1, OleC and OleD (Xanthomonas campestris pv. campestris, UniProt Q8PDW5).
T1 construct: His6-tag with thrombin site (implied by Ni-column purification); made in house; host or cells: E. coli One Shot BL21 (DE3) for OleD
Nature of the series: Hydrocarbon detection enzyme assay, OleC and OleD without OleA. Conditions: substrate incubated with OleC and OleD. Format: biochemical. As for the experimental part: (§1) Hydrocarbon Detection Enzyme Assay. […] Products were extracted with 250 μl ethyl acetate using 16-hentriacontanone ketone (Tokyo Kasei Kogyo Co., Ltd., Japan) as an internal standard. After vortexing and 5 min of gentle centrifugation, the top solvent layer was transferred to a glass vial and analyzed using a gas chromatograph equipped with a flame ionization detector HP 7890A (Hewlett Packard, Palo Alto) and mass spectrometer HP 5975C (GC-MS-FID). GC was conducted under the following conditions: helium gas, 1.75 ml/min; HP-1 ms column (100% dimethylsiloxane capillary; 30 m by 250 μm by 0.25 μm); temperature ramp, 100° C. to 320° C.; 10° C./min, hold at 320° C. for 5 min, 250° C. injection port, and split at the outlet between MS and FID. The mass spectrometer was run under the following conditions: electron impact at 70 eV and 35 μA. The flame ionization detector was set at 250° C. with hydrogen flow set at 30 ml/min, air set at 400 ml/min, and helium makeup gas set at 25 ml/min.
The identity of the compound was confirmed by the mass spectrum shown above the GC chromatogram in FIG. III-6A, with the major ion, m/z 378, representing the molecular ion.
Next, it was tested if the ketone 14-heptacosanone could also give rise to 14-heptacosene or any other discernible product.

Series [1] can be described thus: Spontaneous decarboxylation of synthetic beta-keto acid. Conditions: synthetic acid from hydrogenolysis of the benzyl ester, no enzyme.
For series [2], the target named is T2, OleA (Xanthomonas campestris pv. campestris, UniProt Q8PDX2).
T2 construct: His-tag (N); made in house; host or cells: E. coli One Shot BL21 (DE3), pET28b+
Nature of the series: Release of CoASH thiol (DTNB) for assay of OleA substrate range. Format: biochemical. Conditions: for reaction with OleA to release coenzyme A: incubation time in which palmitoyl-CoA reacts completely; for % of Theoretical / CoA Product: starting substrate 65 μM; for % of Theoretical: 65 μM of product is 100% of theoretical yield; for CoA Product: free coenzyme A detected with DTNB, average of triplicate determinations with standard error; for reaction stoichiometry, coenzyme A released per acyl-CoA consumed: substrate allowed to completely react. As for the experimental part: Detecting the Release of CoASH Thiol for Assay of OleA Substrate Range. Release of the free thiol group of CoASH was detected by the addition of 5,5′-dithio-bis-(2-nitrobenzoic acid) (DTNB) measured spectrophotometrically at 412 nm (ε412=13,600 M^−1 cm^−1) (Alexson et al. 1988, J. Biol. Chem. 263:13564-13571; Ellman et al. 1958. Arch Biochem. Biophys. 74:443-450). […] DTNB was incubated with the reaction for 2 min and quantified spectrophotometrically.
Initial Defining of Substrate Specificity and Reaction Products of OleA. Enzymes catalyzing condensation or hydrolysis reactions with acyl-CoA substrates release coenzyme A that can be assayed colorimetrically using DTNB (Alexson et al. 1988. J. Biol. Chem. 263:13564-13571; Skaff et al. 2010. Anal. Biochem. 396:288-296; Sleeman et al. 2004. J. Biol. Chem. 279:6730-6736; Yashiro et al. 1995. Biochim. Biophys. 1258:288-96). […] With purified OleA, DTNB was used to determine the stoichiometry of coenzyme A formation and to begin to discern the substrate specificity of OleA.
First, the coenzyme A product stoichiometry was determined using either myristoyl-CoA or palmitoyl-CoA and allowing the substrate to completely react. With either substrate, the reaction stoichiometry was 1.0 mole of coenzyme A released for each mole of acyl-CoA consumed. In this manner, acyl-CoA chains of different lengths were tested with OleA using a time of incubation in which palmitoyl-CoA reacts completely as described in the Methods section. Under those conditions (Table III-2) palmitoyl-CoA reacted more completely than myristoyl-CoA.

The target in series [3] is T2, OleA. Nature of the series: GC-MS/GC-FID product analysis of OleA reactions with acyl-CoA substrates. Format: biochemical. Conditions: peak area integration. As for the experimental part:
Subsequent experiments were conducted to examine if coenzyme A was formed as a consequence of acyl-group condensation, thioester bond hydrolysis, or some mixture of the two reactions. Based on previous observations (Beller et al. 2010. Appl. Environ. Microbiol. 76:1212-1223; Sukovich et al. 2010. Appl. Environ. Microbiol. 76:3850-62; Friedman et al. 2008. International Patent WO2008/113041), it was known that long-chain ketones were the observed condensation products. In subsequent experiments in this study, it was shown that β-keto acids are the initial products and those decarboxylate quantitatively to the corresponding ketone. In this context, reaction mixtures were solvent extracted and subjected to GC-MS to identify ketones derived from condensation and/or fatty acids derived from acyl chain hydrolysis.
In this context, experiments were conducted with mixtures of fatty acyl-CoA substrates. All pairwise combinations of C10, C12, C14, C16, saturated and C16 monounsaturated (C16:1) acyl-CoA substrates were incubated, extracted, and analyzed for products by GC-MS and GC-FID. In all, 15 product mixtures were analyzed. […] Only with C12 acyl condensation and C14 plus C16:1 condensation were the major products derived from a condensation of fatty acyl chains. In the case of C14 condensations (myristoyl-CoA), the ketone 14-heptacosanone was produced at only slightly lower levels than the hydrolysis product myristic acid.

Series [4] deals with Synechococcus. Nature of the series: Growth in BG11AN medium supplemented with lactic acid. Format: cell-based. An excerpt: To maintain the co-culture of the cyanobacterium (Synechococcus) and the heterotroph (Shewanella), a minimal medium was established that would support growth of both Shewanella and Synechococcus. We started with the preferred medium for Synechococcus, known as BG11. […] A modified Synechococcus minimal medium, denoted here as BG11AN medium, was used and supplemented with lactic acid to test both lactate inhibition and ammonia inhibition. BG11AN has ammonium nitrate at 1.5 g/L replacing the sodium nitrate used in BG11. Shewanella grew well in BG11AN medium. The Synechococcus grew in the BG11AN medium, not as well as in BG11, but acceptably. The cultures in BG11 AN were more of a yellow green than the deep green of the BG11 culture. […] In fact, it stimulated growth at levels up to 0.5 g/L. It was concluded that the BG11AN medium can be used for co-culture of Synechococcus and Shewanella in subsequent experiments.

The target in a further series is T3, OleA and OleC (Xanthomonas campestris pv. campestris, UniProt Q8PDX2).
T3 construct: His-tag (N); made in house; host or cells: E. coli (OleA)
T3 sequence (Q8PDX2 1-338): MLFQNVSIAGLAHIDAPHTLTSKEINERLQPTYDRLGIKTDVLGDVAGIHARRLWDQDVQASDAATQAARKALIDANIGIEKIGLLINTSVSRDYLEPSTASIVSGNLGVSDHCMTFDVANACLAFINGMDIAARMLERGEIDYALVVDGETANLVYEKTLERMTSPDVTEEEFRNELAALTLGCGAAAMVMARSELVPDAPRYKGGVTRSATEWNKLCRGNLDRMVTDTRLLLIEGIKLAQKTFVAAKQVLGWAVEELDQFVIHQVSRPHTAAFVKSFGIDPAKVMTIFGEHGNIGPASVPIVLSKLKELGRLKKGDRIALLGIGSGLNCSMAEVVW
Nature of the series: Hydrocarbon detection enzyme assay, OleA and OleC in admixture. Conditions: substrate incubated with OleA and OleC. Format: biochemical. As for the experimental part:
as §1
(§2) Role of OleA in olefin biosynthesis. […] Other Ole proteins were purified as described in the methods section and tested in admixture with OleA and with myristoyl-CoA as the substrate. […] The identities of the products were confirmed by mass spectrometry.

In a further series the target is T4, OleA, OleC and OleD (Xanthomonas campestris pv. campestris, UniProt Q8PDX2).
T4 construct: His-tag (N); made in house
T4 sequence (Q8PDX2 1-338): T3 sequence (Q8PDX2 1-338)
Briefly: Hydrocarbon detection enzyme assay, OleA, OleC and OleD. The series is classed as biochemical. The following applies: substrate incubated with OleA. As for the experimental part:
as §1, §2

Series [5] relates to Synechococcus. Nature of the series: Effect of growth supplements of the type found in corn steep liquor on Synechococcus. Format: cell-based. The following applies: flasks supplemented.
Source text: The effects of growth supplements of the type found in corn steep liquor on the growth of Synechococcus and Shewanella were examined.

T1 sequence (Q8PDW5 2-337, added parts left off): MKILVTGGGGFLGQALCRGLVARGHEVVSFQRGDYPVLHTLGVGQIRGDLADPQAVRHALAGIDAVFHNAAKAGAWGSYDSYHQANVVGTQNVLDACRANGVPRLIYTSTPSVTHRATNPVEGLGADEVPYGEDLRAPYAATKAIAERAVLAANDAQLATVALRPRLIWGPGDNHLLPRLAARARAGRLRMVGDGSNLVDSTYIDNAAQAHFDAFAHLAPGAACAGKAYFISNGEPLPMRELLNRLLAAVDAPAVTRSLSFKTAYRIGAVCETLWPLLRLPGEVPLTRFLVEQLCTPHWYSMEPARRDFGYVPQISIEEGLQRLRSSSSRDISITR

Take `CCCCCCCCCCCCCC(=O)C(CCCCCCCCCCCC)C(=O)O` (racemic) [2-myristoylmyristic acid]: at OleC and OleD, the “products observed by GC-MS” value was “yielded 14-heptacosanone and the expected olefinic product from head-to-head condensation, 14-heptacosene”. For the same compound, the “stability, decarboxylation to 14-heptacosanone” value in series [1] is recorded as “rapid decarboxylation”.

Take `CCCCCCCCCCCCCC(=O)CCCCCCCCCCCCC` [14-heptacosanone]: the “products observed by GC-MS” value at OleC and OleD is recorded as 14-heptacosene was not detected.

As for `CC(=O)SCCNC(=O)CCNC(=O)[C@H](O)C(C)(C)COP(=O)(O)OP(=O)(O)OC[C@H]1O[C@@H](n2cnc3c(N)ncnc32)[C@H](O)[C@@H]1OP(=O)(O)O` [Acetyl-CoA], the “reaction with OleA to release coenzyme A” value at OleA [2] is “did not”.

For the compound `CCCCCCCCCC(=O)SCCNC(=O)CCNC(=O)[C@H](O)C(C)(C)COP(=O)(O)OP(=O)(O)OC[C@H]1O[C@@H](n2cnc3c(N)ncnc32)[C@H](O)[C@@H]1OP(=O)(O)O` [Decanoyl-CoA], at OleA [2], the “reaction with OleA to release coenzyme A” value is listed as “undergo reaction to release coenzyme A”, the “% of Theoretical” value came to 42% and the “CoA Product” value is 27.2 ± 1.6 µM. Further, the “Products, ketones (Cx) and fatty acids (FAx), in order of decreasing abundance” value (shortened to “Products, ketones … of decreasing abundance”) at OleA [3] (second fatty acyl-CoA chain C10) was “FA10 > C19”.

In the case of `CC(O)C(=O)O` (centres unmarked) [Lactic acid], in the series on Synechococcus [4], the “level at which growth was not inhibited” value is given as no more than 1 g/L and the “level at which growth was stimulated” value is recorded as “up to 0.5 g/L”.

Regarding `CCCCCCCCCCCC(=O)SCCNC(=O)CCNC(=O)[C@H](O)C(C)(C)COP(=O)(O)OP(=O)(O)OC[C@H]1O[C@@H](n2cnc3c(N)ncnc32)[C@H](O)[C@@H]1OP(=O)(O)O` [Lauroyl-CoA], at OleA [2], the “reaction with OleA to release coenzyme A” value is “undergo reaction to release coenzyme A”, the “% of Theoretical” value is reported as 79% and the “CoA Product” value was determined as 51.4 ± 1.9 µM.

In the case of `CCCCCCCCCCCCCC(=O)SCCNC(=O)CCNC(=O)[C@H](O)C(C)(C)COP(=O)(O)OP(=O)(O)OC[C@H]1O[C@@H](n2cnc3c(N)ncnc32)[C@H](O)[C@@H]1OP(=O)(O)O` [Myristoyl-CoA], at OleA [2], the “% of Theoretical” value amounted to 97%; the “CoA Product” value turned out to be 63.2 ± 0.4 µM; the “reaction stoichiometry, coenzyme A released per acyl-CoA consumed” value was 1.0 mole of coenzyme A released for each mole of acyl-CoA consumed. Moreover, at OleA [3] (second fatty acyl-CoA chain C14), the “Products, ketones … of decreasing abundance” value is “FA14 > C27”. Moreover, the “products observed by GC-MS” value on OleA and OleC was “produced only 14-heptacosanone”. The “products observed by GC-MS” value at OleA, OleC and OleD was “the olefin 14-heptacosene (20.4 min) was observed in addition to the peak corresponding to 14-heptacosanone”.

For `CCCCCCCC(=O)SCCNC(=O)CCNC(=O)[C@H](O)C(C)(C)COP(=O)(O)OP(=O)(O)OC[C@H]1O[C@@H](n2cnc3c(N)ncnc32)[C@H](O)[C@@H]1OP(=O)(O)O` [Octanoyl-CoA], at OleA [2], the “reaction with OleA to release coenzyme A” value is “undergo reaction to release coenzyme A”, the “% of Theoretical” value is 12% and the “CoA Product” value was 8.0 ± 2.2 µM.

Regarding `CCCCCC/C=C\CCCCCCCC(=O)SCCNC(=O)CCNC(=O)[C@H](O)C(C)(C)COP(=O)(O)OP(=O)(O)OC[C@H]1O[C@@H](n2cnc3c(N)ncnc32)[C@H](O)[C@@H]1OP(=O)(O)O` [Palmitoleoyl-CoA], on OleA [2], the “reaction with OleA to release coenzyme A” value is on record as “undergo reaction to release coenzyme A”, the “% of Theoretical” value was determined as 57% and the “CoA Product” value was 36.9 ± 0.9 µM. Besides, at OleA [3] (second fatty acyl-CoA chain C16:1), the “Products, ketones … of decreasing abundance” value is recorded as “FA16:1 > C31:2”.

`CCCCCCCCCCCCCCCC(=O)SCCNC(=O)CCNC(=O)[C@H](O)C(C)(C)COP(=O)(O)OP(=O)(O)OC[C@H]1O[C@@H](n2cnc3c(N)ncnc32)[C@H](O)[C@@H]1OP(=O)(O)O` [Palmitoyl-CoA]: on OleA [2], the “% of Theoretical” value is 100%; the “CoA Product” value came to 65.0 ± 0.9 µM; the “reaction stoichiometry, coenzyme A released per acyl-CoA consumed” value was 1.0 mole of coenzyme A released for each mole of acyl-CoA consumed. Besides, the “Products, ketones … of decreasing abundance” value on OleA [3] (second fatty acyl-CoA chain C16) is “FA16 > C31”.

Take `CCCCCCCCCCCCCCCCCC(=O)SCCNC(=O)CCNC(=O)[C@H](O)C(C)(C)COP(=O)(O)OP(=O)(O)OC[C@H]1O[C@@H](n2cnc3c(N)ncnc32)[C@H](O)[C@@H]1OP(=O)(O)O` [Stearoyl-CoA]: on OleA [2], the “reaction with OleA to release coenzyme A” value is recorded as “undergo reaction to release coenzyme A”, the “% of Theoretical” value was 29% and the “CoA Product” value amounted to 18.7 ± 1.8 µM.

Turning to `N[C@@H](CCC(=O)O)C(=O)O` [glutamate], in the series with Synechococcus [5], the “effect on growth of Synechococcus” value is reported as “slightly better growth”.

Take `NC(=O)CC[C@H](N)C(=O)O` [glutamine]: in the series on Synechococcus [5], the “effect on growth of Synechococcus” value was “slightly better growth”.
